Test results taken from patent US20020155443A1, “Metal binding DNA interactive compounds” (priority 2000, published 2002).

What was measured:
Format in all cases: cell-based
human cancer cell lines = assay: Growth inhibition across the human cancer cell line panel (overall statement); details: wide range of human cancer cell lines, in words
Method: (§1) The growth inhibitory activities of bis(propargylic) sulfone crown ethers 2.47 and 2.48 against B16 murine melanoma cells were determined calorimetrically with an MTT assay conducted by the Institute for Drug Development at the Cancer Research and Therapy Center in San Antonio, Tex.
(§2) The growth inhibitory activity of propargylic sulfone 3.2 against a wide range of human cancer cell lines was determined calorimetrically with sulforhodamine B assay conducted by the National Cancer Institute of the National Institutes of Health.
(§3) The in vitro cytotoxicity of compounds 2.47, 2.48 and 3.2 were investigated using the DTP Human Tumor Cell Line Screen. The concept, rationale and history of development of the DTP Human Tumor Cell Line Screen were described by Boyd (1993;1997)^8.4, 8.6 and Boyd and Paull (1995)^8.5. Further technical details of the NCI screening procedures were described (Monks, et. al.)^8.2 as were the origins and processing of the cell lines (Alley, et. al., Shoemaker, et. al., Stinson, et. al.). Briefly, cell suspensions that were diluted according to the particular cell type and the expected target cell density (5000-40,000 cells per well based on cell growth characteristics) were added by pipet (100 μL) into 96-well microtiter plates. Inoculates were allowed a preincubation period of 24 h at 37° C. for stabilization. Dilutions at twice the intended test concentration were added at time zero in 100-μL aliquots to the microtiter plate wells. Usually, test compounds were evaluated at five 10-fold dilutions. In routine testing, the highest well concentration is 10E-4 M, but for the standard agents the highest well concentration used depended on the agent. Incubations lasted for 48 h in 5% CO2 atmosphere and 100% humidity. The cells were assayed by using the sulforhodamine B assay (Rubinstein, et. al., Skehan, et. al.). A plate reader was used to read the optical densities, and a microcomputer processed the optical densities into the special concentration parameters.

SF-539 = assay: DTP Human Tumor Cell Line Screen, sulforhodamine B assay; details: CNS Cancer, 48 h
Method: as §2, §3

NCI-H522 = assay: as above; details: Non-Small Cell Lung Cancer, 48 h
Method: as §2, §3

OVCAR-4 = assay: as above; details: Ovarian Cancer, 48 h
Method: as §2, §3

SF-268 = assay: as above; details: CNS Cancer, 48 h
Method: as §2, §3

A498 = assay: as above; details: Renal Cancer, 48 h
Method: as §2, §3

MDA-N = assay: as above; details: Breast Cancer, 48 h
Method: as §2, §3

SW-620 = assay: as above; details: Colon Cancer, 48 h
Method: as §2, §3

OVCAR-3 = assay: as above; details: Ovarian Cancer, 48 h
Method: as §2, §3

COLO 205 = assay: as above; details: Colon Cancer, 48 h
Method: as §2, §3

NCI-H322M = assay: as above; details: Non-Small Cell Lung Cancer, 48 h
Method: as §2, §3

T-47D = assay: as above; details: Breast Cancer, 48 h
Method: as §2, §3

SK-MEL-2 = assay: as above; details: Melanoma, 48 h
Method: as §2, §3

A-549/ATCC = assay: as above; details: 48 h
Method: as §2, §3

SK-MEL-28 = assay: as above; details: Melanoma, 48 h
Method: as §2, §3

[1] = tested on: B16 murine melanoma cells; assay: Growth inhibition of B16 murine melanoma cells, MTT assay; details: B16 melanoma cells; read-out: IC50, growth inhibition
Method: as §1

M14 = assay: DTP Human Tumor Cell Line Screen, sulforhodamine B assay; details: Melanoma, 48 h
Method: as §2, §3

RPMI-8226 = assay: as above; details: Leukemia, 48 h
Method: as §2, §3

SMILES: O=S1(=O)CC#CCOCCOCCOCCOCCOCCOCC#CC1 [Compound 2.47]
- growth inhibitory properties against human cancer cell lines (human cancer cell lines): display growth inhibitory properties
- IC50 (SF-539): 11.1 µM
- IC50 (NCI-H522): 2.86 µM
- IC50 (OVCAR-4): 19.8 µM
- IC50 (SF-268): 24.2 µM
- IC50 (A498): 16.9 µM
- IC50 (MDA-N): 14.2 µM
- IC50 (SW-620): 10.4 µM
- IC50 (OVCAR-3): 15.8 µM
- IC50 (COLO 205): 7.2 µM
- IC50 (NCI-H322M): 17.5 µM
- IC50 (T-47D): 20.6 µM
- IC50 (SK-MEL-2): 16.1 µM
- IC50 (A-549/ATCC; Non-Small Cell Lung Cancer): 20.2 µM
- IC50 (SK-MEL-28): 18.9 µM
- IC50 [1]: 54.2 µM

SMILES: O=S1(=O)CC#CCOCCOCCOCCOCCOCCOCCOCC#CC1 [Compound 2.48]
- growth inhibitory properties against human cancer cell lines (human cancer cell lines): display growth inhibitory properties
- IC50 (M14): 16.9 µM
- IC50 (SF-539): 26.2 µM
- IC50 (NCI-H522): 10.6 µM
- IC50 (OVCAR-4): 27.3 µM
- IC50 (SF-268): 30.5 µM
- IC50 (A498): 54.7 µM
- IC50 (RPMI-8226): 17.4 µM
- IC50 (MDA-N): 18.9 µM
- IC50 (SW-620): 14.3 µM
- IC50 (OVCAR-3): 19.7 µM
- IC50 (COLO 205): 14.7 µM
- IC50 (NCI-H322M): 32.3 µM
- IC50 (T-47D): 24.5 µM
- IC50 (SK-MEL-2): 17.3 µM
- IC50 (A-549/ATCC; Non-Small Cell Lung Cancer): 61.7 µM
- IC50 (SK-MEL-28): 17.9 µM
- IC50 [1]: 44.7 µM

SMILES: O=C(OCC1COCCOCCOCCOCCO1)c1ccc(CS(=O)(=O)CC#CCO)cc1 (centres unmarked) [Compound 3.2]
- growth inhibitory properties against human cancer cell lines (human cancer cell lines): modest growth inhibitory properties
- IC50 (M14; Homo sapiens): > 100 µM
- IC50 (SF-539; Homo sapiens): 46.8 µM
- IC50 (NCI-H522; Homo sapiens): 18.8 µM
- IC50 (OVCAR-4; Homo sapiens): > 100 µM
- IC50 (SF-268; Homo sapiens): > 100 µM
- IC50 (A498; Homo sapiens): > 100 µM
- IC50 (RPMI-8226; Homo sapiens): 8.4 µM
- IC50 (MDA-N; Homo sapiens): 37.4 µM
- IC50 (SW-620; Homo sapiens): 67 µM
- IC50 (OVCAR-3; Homo sapiens): > 100 µM
- IC50 (COLO 205; Homo sapiens): > 100 µM
- IC50 (NCI-H322M; Homo sapiens): 34.3 µM
- IC50 (SK-MEL-2; Homo sapiens): 98.7 µM
- IC50 (A-549/ATCC; Homo sapiens, A549, Non-Small Cell Lung Cancer): > 100 µM
- IC50 (SK-MEL-28; Homo sapiens): > 100 µM
